Data published in ChEMBL document CHEMBL1201862, “PubChem BioAssay data set” (2004).
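Protocol summary: plate cells (96-well), add compound at 5 concentrations, incubate 48 h, interpolate endpoints linearly. Here, GI50 denotes the concentration required for 50% inhibition of growth.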 The source made the active and inactive calls. No stated cut-off is given here; in the data, active = GI50 up to about 1.1 µM and inactive = higher.

Assays:
Experiment in all cases: inhibition of tumour cell growth, NCI panel, 48 h
SF-539 = test system: SF-539
K562 = test system: K562
OVCAR-5 = test system: OVCAR-5
UACC-62 = test system: UACC-62
786-0 = test system: 786-0
MCF7 = test system: MCF7
HCT-15 = test system: HCT-15
SF-268 = test system: SF-268
Malme-3M = test system: Malme-3M
OVCAR-3 = test system: OVCAR-3
IGROV-1 = test system: IGROV-1
PC-3 = test system: PC-3
SF-295 = test system: SF-295
OVCAR-4 = test system: OVCAR-4
KM12 = test system: KM12
MDA-MB-231 = test system: MDA-MB-231
HT-29 = test system: HT-29
NCI/ADR-RES = test system: NCI/ADR-RES
MOLT-4 = test system: MOLT-4
SK-MEL-28 = test system: SK-MEL-28
NCI-H460 = test system: NCI-H460
SR = test system: SR
CCRF-CEM = test system: CCRF-CEM
M14 = test system: M14
NCI-H23 = test system: NCI-H23
ACHN = test system: ACHN
NCI-H226 = test system: NCI-H226
SK-MEL-2 = test system: SK-MEL-2
HOP-62 = test system: HOP-62
MDA-MB-435 = test system: MDA-MB-435
SW-620 = test system: SW-620
SNB-75 = test system: SNB-75
SNB-19 = test system: SNB-19
HL-60 = test system: HL-60
HCC 2998 = test system: HCC 2998
RXF 393 = test system: RXF 393
NCI-H522 = test system: NCI-H522
U-251 = test system: U-251
HOP-92 = test system: HOP-92
DU-145 = test system: DU-145
A498 = test system: A498
SN12C = test system: SN12C
A549 = test system: A549
OVCAR-8 = test system: OVCAR-8
Hs-578T = test system: Hs-578T
T47D = test system: T47D
COLO 205 = test system: COLO 205
BT-549 = test system: BT-549
SK-OV-3 = test system: SK-OV-3
SK-MEL-5 = test system: SK-MEL-5
UO-31 = test system: UO-31
CAKI-1 = test system: CAKI-1
MDA-N = test system: MDA-N
RPMI-8226 = test system: RPMI-8226
TK-10 = test system: TK-10
LOX IMVI = test system: LOX IMVI
HCT-116 = test system: HCT-116
UACC-257 = test system: UACC-257
EKVX = test system: EKVX

In the case of `O=C(Cn1cc(Br)c(=O)[nH]c1=O)c1ccc(-c2ccccc2)cc1`, the GI50 (SF-539) was 8.41 µM (inactive), the GI50 (K562) was > 11.2 µM (inactive) and the GI50 (OVCAR-5) was > 14.4 µM (inactive). For the same compound, the GI50 (UACC-62) was > 100 µM (inactive), the GI50 (786-0) was 10.5 µM (inactive) and the GI50 (MCF7) was > 17.5 µM (inactive). The GI50 (HCT-15) was 7.67 µM, the GI50 (SF-268) was 4.71 µM (inactive) and the GI50 (Malme-3M) was > 26.5 µM (inactive). For the same compound, the GI50 (OVCAR-3) was > 100 µM (inactive), the GI50 (IGROV-1) was 15.7 µM (inactive) and the GI50 (PC-3) was > 17.8 µM (inactive). The GI50 (SF-295) was 10.9 µM (inactive), the GI50 (OVCAR-4) was > 15.8 µM (inactive) and the GI50 (KM12) was > 14.6 µM (inactive). For the same compound, the GI50 (MDA-MB-231) was 12.2 µM (inactive), the GI50 (HT-29) was > 17 µM (inactive) and the GI50 (NCI/ADR-RES) was 13 µM (inactive). For the same compound, the GI50 (MOLT-4) was > 13 µM (inactive), the GI50 (SK-MEL-28) was > 14.3 µM (inactive) and the GI50 (NCI-H460) was > 15.9 µM (inactive). For the same compound, the GI50 (SR) was > 17 µM (inactive), the GI50 (CCRF-CEM) was > 12.6 µM (inactive) and the GI50 (M14) was > 15.1 µM (inactive). For the same compound, the GI50 (NCI-H23) was 16.4 µM (inactive), the GI50 (ACHN) was 18.6 µM (inactive) and the GI50 (NCI-H226) was 17 µM (inactive). The GI50 (SK-MEL-2) was > 12.4 µM (inactive), the GI50 (HOP-62) was 5.12 µM (inactive) and the GI50 (MDA-MB-435) was > 16.8 µM (inactive). The GI50 (SW-620) was > 17.5 µM (inactive), the GI50 (SNB-75) was 1.85 µM (inactive) and the GI50 (SNB-19) was 2.25 µM (inactive). The GI50 (HL-60) was > 17.4 µM (inactive), the GI50 (HCC 2998) was > 15.8 µM (inactive) and the GI50 (RXF 393) was 63 µM (inactive). The GI50 (NCI-H522) was 5.57 µM (inactive), the GI50 (U-251) was 5.31 µM (inactive) and the GI50 (HOP-92) was 6.89 µM (inactive). For the same compound, the GI50 (DU-145) was > 16.1 µM (inactive), the GI50 (A498) was > 100 µM (inactive) and the GI50 (SN12C) was 16.1 µM (inactive). The GI50 (A549) was > 17.4 µM (inactive), the GI50 (OVCAR-8) was 6.76 µM (inactive) and the GI50 (Hs-578T) was 29.6 µM (inactive). The GI50 (T47D) was > 100 µM (inactive), the GI50 (COLO 205) was > 16.4 µM (inactive) and the GI50 (BT-549) was 3.18 µM (inactive). The GI50 (SK-OV-3) was > 58.6 µM (inactive), the GI50 (SK-MEL-5) was > 15.6 µM (inactive) and the GI50 (UO-31) was > 100 µM (inactive). The GI50 (CAKI-1) was 6 µM (inactive), the GI50 (MDA-N) was > 100 µM (inactive) and the GI50 (RPMI-8226) was 15.3 µM (inactive). For the same compound, the GI50 (TK-10) was > 30.8 µM (inactive), the GI50 (LOX IMVI) was > 15.4 µM (inactive) and the GI50 (HCT-116) was > 16 µM (inactive). For the same compound, the GI50 (UACC-257) was 15.9 µM (inactive) and the GI50 (EKVX) was 60 µM (inactive).

For `CC(=O)OC[C@]1(C(=O)C(O)c2ccoc2)[C@H](C)CC[C@@]23COC(=O)C2=CCC[C@@H]31` (some centres undefined), the GI50 (SF-539) was > 10 µM (inactive), the GI50 (OVCAR-5) was > 10 µM (inactive) and the GI50 (UACC-62) was > 10 µM (inactive). The GI50 (786-0) was > 10 µM (inactive), the GI50 (MCF7) was > 10 µM (inactive) and the GI50 (HCT-15) was greater than 10 µM. The GI50 (SF-268) was > 10 µM (inactive), the GI50 (OVCAR-3) was > 10 µM (inactive) and the GI50 (IGROV-1) was > 10 µM (inactive). For the same compound, the GI50 (PC-3) was > 10 µM (inactive), the GI50 (SF-295) was > 10 µM (inactive) and the GI50 (OVCAR-4) was > 10 µM (inactive). For the same compound, the GI50 (KM12) was > 10 µM (inactive), the GI50 (MDA-MB-231) was > 10 µM (inactive) and the GI50 (HT-29) was > 10 µM (inactive). The GI50 (NCI/ADR-RES) was > 10 µM (inactive), the GI50 (MOLT-4) was > 10 µM (inactive) and the GI50 (NCI-H460) was > 10 µM (inactive). The GI50 (SR) was > 10 µM (inactive), the GI50 (CCRF-CEM) was > 10 µM (inactive) and the GI50 (M14) was > 10 µM (inactive). For the same compound, the GI50 (NCI-H23) was > 10 µM (inactive), the GI50 (ACHN) was > 10 µM (inactive) and the GI50 (NCI-H226) was > 10 µM (inactive). The GI50 (SK-MEL-2) was > 10 µM (inactive), the GI50 (MDA-MB-435) was > 10 µM (inactive) and the GI50 (SW-620) was > 10 µM (inactive). For the same compound, the GI50 (SNB-75) was > 10 µM (inactive), the GI50 (SNB-19) was > 10 µM (inactive) and the GI50 (HL-60) was > 10 µM (inactive). For the same compound, the GI50 (HCC 2998) was > 10 µM (inactive), the GI50 (RXF 393) was > 10 µM (inactive) and the GI50 (NCI-H522) was > 10 µM (inactive). For the same compound, the GI50 (U-251) was > 10 µM (inactive), the GI50 (HOP-92) was > 10 µM (inactive) and the GI50 (DU-145) was > 10 µM (inactive). For the same compound, the GI50 (A498) was > 10 µM (inactive), the GI50 (SN12C) was > 10 µM (inactive) and the GI50 (A549) was > 10 µM (inactive). The GI50 (OVCAR-8) was > 10 µM (inactive), the GI50 (Hs-578T) was > 10 µM (inactive) and the GI50 (T47D) was > 10 µM (inactive). For the same compound, the GI50 (COLO 205) was > 10 µM (inactive), the GI50 (BT-549) was > 10 µM (inactive) and the GI50 (SK-OV-3) was > 10 µM (inactive). The GI50 (SK-MEL-5) was > 10 µM (inactive), the GI50 (UO-31) was > 10 µM (inactive) and the GI50 (CAKI-1) was > 10 µM (inactive). For the same compound, the GI50 (MDA-N) was > 10 µM (inactive), the GI50 (RPMI-8226) was > 10 µM (inactive) and the GI50 (TK-10) was > 10 µM (inactive). The GI50 (LOX IMVI) was > 10 µM (inactive), the GI50 (HCT-116) was > 10 µM (inactive) and the GI50 (UACC-257) was > 10 µM (inactive). For the same compound, the GI50 (EKVX) was > 10 µM (inactive).
